Assay results taken from ChEMBL document CHEMBL5584351.
The source made the active and inactive calls. The rule behind the calls is not given here.

Tests used:
[1] = target: T1, Oxysterols receptor LXR-alpha (Homo sapiens, UniProt Q13133); experiment: Agonist activity at GST tagged LXRalpha (unknown origin) using SRC1 as coactivator peptide incubated for 1 hr by coactivator recruitment based TR-FRET assay
T1 sequence (Q13133 whole entry): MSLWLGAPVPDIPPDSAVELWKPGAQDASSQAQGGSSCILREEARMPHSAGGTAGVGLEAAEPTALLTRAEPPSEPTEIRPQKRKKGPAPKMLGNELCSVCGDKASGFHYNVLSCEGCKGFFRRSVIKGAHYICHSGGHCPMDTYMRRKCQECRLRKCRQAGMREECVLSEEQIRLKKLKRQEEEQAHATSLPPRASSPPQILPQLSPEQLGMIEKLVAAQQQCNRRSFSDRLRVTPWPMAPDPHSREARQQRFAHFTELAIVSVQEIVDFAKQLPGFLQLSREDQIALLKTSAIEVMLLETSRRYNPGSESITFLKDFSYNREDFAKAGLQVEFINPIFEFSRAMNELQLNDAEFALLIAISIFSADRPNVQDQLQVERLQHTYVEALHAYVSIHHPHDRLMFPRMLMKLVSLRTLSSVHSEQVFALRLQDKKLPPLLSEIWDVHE

[2] = target: Phospholipid-transporting ATPase ABCA1 (Homo sapiens, UniProt O95477); experiment: Activation of ABCA1 (unknown origin)
Chain of Phospholipid-transporting ATPase ABCA1 (O95477 whole entry): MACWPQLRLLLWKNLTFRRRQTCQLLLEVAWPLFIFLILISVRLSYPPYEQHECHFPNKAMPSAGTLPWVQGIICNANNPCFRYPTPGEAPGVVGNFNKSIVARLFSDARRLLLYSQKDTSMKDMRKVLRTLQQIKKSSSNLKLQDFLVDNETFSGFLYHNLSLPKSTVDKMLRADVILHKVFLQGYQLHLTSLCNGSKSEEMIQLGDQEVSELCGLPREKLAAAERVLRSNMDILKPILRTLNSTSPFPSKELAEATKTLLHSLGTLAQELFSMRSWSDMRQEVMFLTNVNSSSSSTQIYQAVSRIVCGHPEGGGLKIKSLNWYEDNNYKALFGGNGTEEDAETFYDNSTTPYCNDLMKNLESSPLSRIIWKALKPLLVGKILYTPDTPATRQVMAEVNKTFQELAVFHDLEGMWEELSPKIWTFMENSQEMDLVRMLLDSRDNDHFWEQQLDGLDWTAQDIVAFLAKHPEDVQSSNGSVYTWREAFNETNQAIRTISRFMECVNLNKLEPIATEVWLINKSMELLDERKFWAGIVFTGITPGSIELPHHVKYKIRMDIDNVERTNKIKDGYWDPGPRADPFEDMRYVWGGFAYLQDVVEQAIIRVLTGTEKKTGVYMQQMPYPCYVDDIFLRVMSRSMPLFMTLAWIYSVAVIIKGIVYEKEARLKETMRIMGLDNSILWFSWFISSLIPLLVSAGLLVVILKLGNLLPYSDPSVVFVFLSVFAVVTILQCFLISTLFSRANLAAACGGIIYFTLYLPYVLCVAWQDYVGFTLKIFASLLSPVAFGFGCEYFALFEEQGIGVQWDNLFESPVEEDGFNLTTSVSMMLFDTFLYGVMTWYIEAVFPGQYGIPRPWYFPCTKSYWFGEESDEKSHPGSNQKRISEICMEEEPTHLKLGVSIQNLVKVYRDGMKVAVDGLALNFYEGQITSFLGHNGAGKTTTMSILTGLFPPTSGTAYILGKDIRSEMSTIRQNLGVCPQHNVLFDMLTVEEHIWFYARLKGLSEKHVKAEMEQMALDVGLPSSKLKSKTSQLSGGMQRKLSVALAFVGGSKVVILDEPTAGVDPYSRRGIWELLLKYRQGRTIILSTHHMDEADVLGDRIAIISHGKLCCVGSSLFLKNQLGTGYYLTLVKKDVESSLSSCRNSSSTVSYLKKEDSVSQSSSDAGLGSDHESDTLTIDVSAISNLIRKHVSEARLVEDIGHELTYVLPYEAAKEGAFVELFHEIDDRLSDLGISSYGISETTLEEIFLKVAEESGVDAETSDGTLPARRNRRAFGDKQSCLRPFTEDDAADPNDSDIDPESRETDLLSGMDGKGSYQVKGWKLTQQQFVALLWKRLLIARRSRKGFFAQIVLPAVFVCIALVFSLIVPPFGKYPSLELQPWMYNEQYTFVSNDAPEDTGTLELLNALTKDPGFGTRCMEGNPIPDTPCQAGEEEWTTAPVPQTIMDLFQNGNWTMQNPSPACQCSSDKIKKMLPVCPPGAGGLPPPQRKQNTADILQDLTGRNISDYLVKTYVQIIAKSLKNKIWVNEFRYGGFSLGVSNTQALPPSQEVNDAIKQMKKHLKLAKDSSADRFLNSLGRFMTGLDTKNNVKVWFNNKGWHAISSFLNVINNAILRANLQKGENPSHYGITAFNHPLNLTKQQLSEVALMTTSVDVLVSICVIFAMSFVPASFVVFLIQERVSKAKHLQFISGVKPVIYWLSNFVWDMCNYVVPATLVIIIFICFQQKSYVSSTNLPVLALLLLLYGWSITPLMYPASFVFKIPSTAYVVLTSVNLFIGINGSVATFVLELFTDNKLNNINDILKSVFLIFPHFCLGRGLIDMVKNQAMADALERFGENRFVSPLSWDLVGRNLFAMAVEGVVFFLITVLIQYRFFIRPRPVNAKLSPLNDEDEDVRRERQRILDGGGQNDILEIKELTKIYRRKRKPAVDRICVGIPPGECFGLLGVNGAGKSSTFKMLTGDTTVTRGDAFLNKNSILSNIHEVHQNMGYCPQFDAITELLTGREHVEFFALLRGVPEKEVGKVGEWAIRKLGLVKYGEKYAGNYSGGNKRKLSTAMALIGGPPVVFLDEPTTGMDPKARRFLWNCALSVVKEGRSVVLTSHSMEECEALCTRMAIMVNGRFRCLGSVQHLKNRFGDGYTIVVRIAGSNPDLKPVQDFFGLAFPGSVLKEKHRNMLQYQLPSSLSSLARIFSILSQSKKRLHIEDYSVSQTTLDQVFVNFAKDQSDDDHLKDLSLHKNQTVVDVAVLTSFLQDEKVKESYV

HepG2 = experiment: Agonist activity at LXR in human HepG2 cells assessed as upregulation of SREBF1 mRNA expression at 10 uM incubated for 24 hrs by qPCR analysis; type: cell-based; settings: filed as agonist
[3] = target: Phospholipid-transporting ATPase ABCA1 (Mus musculus) (UniProt P41233); experiment: Activation of ABCA1 in mouse J774.2 cells assessed as increase in fluorescent-tagged cholesterol efflux at 1 uM incubated for 24 hrs by BODIPY based fluorescence analysis; type: cell-based; settings: filed as activator
Chain of Phospholipid-transporting ATPase ABCA1 (Mus musculus) (P41233 whole entry, the tested form may be a part): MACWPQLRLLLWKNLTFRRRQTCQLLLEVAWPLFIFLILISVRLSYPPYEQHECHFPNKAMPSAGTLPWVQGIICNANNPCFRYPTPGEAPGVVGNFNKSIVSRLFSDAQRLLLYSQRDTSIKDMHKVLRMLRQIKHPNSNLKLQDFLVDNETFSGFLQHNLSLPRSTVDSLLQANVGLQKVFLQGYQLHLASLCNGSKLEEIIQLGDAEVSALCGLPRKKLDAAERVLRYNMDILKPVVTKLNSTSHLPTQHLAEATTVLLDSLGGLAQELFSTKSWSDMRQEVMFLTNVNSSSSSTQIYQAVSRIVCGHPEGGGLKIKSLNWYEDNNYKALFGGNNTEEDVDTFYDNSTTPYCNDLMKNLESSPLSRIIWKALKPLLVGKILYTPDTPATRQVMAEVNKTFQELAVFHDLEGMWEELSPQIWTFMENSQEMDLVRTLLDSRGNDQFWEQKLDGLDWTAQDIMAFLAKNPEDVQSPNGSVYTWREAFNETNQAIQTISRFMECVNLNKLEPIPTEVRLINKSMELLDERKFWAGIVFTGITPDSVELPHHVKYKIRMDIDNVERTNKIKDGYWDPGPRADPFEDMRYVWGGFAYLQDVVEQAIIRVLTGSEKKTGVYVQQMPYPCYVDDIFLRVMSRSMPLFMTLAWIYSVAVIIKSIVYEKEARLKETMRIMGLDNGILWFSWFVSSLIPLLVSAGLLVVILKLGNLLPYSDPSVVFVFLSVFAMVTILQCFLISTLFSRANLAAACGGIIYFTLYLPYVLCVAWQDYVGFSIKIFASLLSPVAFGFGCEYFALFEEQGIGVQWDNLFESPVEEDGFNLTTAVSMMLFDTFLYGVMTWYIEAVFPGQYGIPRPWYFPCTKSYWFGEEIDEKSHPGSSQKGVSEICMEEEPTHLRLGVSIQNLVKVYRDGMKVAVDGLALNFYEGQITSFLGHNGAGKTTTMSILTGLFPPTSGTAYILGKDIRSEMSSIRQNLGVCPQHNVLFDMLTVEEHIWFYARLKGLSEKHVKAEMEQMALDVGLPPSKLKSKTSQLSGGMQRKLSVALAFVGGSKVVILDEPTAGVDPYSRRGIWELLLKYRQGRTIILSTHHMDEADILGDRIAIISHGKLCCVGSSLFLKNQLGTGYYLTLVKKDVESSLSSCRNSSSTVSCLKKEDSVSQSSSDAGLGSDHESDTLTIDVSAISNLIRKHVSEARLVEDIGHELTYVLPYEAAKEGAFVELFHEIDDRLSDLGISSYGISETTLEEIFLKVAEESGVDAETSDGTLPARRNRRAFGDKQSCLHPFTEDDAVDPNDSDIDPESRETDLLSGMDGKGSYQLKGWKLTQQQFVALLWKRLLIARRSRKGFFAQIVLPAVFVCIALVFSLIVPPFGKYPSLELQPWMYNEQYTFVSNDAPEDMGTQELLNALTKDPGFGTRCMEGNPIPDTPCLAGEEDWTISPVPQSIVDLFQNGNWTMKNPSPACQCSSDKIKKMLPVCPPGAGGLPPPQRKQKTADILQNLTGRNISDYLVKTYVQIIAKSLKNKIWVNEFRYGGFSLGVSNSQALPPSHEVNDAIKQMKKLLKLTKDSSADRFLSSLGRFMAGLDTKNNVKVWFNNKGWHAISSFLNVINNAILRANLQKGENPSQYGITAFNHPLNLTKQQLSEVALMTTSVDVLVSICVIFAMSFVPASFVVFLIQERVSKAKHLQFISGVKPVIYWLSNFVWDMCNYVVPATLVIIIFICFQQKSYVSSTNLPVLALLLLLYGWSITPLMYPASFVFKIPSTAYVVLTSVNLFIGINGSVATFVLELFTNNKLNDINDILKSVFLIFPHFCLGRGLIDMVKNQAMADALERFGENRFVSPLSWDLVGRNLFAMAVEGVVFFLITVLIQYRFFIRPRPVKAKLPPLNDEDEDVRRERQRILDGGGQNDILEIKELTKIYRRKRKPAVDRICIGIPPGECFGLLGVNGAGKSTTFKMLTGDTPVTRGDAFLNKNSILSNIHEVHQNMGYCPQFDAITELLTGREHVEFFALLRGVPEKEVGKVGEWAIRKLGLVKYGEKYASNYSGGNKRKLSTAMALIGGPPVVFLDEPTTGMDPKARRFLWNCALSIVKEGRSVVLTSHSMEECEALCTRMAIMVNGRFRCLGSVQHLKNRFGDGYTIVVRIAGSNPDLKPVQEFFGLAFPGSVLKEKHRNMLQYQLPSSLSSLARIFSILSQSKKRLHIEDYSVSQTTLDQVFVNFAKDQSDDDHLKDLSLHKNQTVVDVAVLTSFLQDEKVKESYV

[4] = target: T2, Bile acid receptor (Homo sapiens) (UniProt Q96RI1); experiment: Agonist activity at FXR LBD (unknown origin) transfected in HEK293T cells by measuring maximal efficacy incubated for 16 hrs by Gal4-reporter gene based luciferase assay; type: cell-based
T2 sequence (whole entry): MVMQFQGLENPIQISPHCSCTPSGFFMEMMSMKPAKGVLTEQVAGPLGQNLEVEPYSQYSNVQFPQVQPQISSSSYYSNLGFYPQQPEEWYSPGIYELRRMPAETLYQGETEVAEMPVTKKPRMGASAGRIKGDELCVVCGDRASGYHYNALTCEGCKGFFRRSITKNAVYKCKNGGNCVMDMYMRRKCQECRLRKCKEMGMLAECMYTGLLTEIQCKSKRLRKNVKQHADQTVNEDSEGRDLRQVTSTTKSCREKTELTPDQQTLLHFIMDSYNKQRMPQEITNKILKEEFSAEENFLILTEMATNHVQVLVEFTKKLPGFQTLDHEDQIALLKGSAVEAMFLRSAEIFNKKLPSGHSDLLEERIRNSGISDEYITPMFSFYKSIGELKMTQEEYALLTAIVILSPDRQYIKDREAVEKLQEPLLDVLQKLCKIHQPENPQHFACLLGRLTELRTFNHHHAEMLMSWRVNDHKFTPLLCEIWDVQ

[5] = target: T3, Oxysterols receptor LXR-beta (Homo sapiens, UniProt P55055); experiment: Agonist activity at GST tagged LXRbeta (unknown origin) using SRC1 as coactivator peptide incubated for 1 hr by coactivator recruitment based TR-FRET assay
T3 sequence (P55055 whole entry): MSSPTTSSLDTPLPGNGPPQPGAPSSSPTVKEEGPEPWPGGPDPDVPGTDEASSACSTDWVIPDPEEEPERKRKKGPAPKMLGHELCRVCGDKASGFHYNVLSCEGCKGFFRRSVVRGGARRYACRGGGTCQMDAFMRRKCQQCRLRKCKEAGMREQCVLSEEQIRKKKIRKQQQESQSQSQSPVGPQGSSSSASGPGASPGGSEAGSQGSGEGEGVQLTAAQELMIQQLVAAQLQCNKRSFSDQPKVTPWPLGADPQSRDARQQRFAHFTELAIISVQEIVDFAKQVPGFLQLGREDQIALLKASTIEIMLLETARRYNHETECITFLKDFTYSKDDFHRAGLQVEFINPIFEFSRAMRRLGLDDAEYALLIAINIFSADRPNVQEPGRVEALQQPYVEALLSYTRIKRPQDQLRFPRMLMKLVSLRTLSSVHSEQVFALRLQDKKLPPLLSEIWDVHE

[6] = Toxicity in wild type C57BL/6 mouse assessed as change in ABCA1 protein expression in brain at 10 mg/kg,po administrated for 7 days by immunoblotting analysis; type: organism-based; settings: in vivo, 168 h, time 7 day

EC50 [1]	EC50 [5]	SMILES	also measured
11 µM		CCOC(=O)c1cccc(NC(=O)c2sc(Cl)cc2S(=O)(=O)N(C)c2ccc(N(C)C)cc2)c1	
0.95 µM		CCOC(=O)c1cccc(NC(=O)c2sc(Cl)cc2S(=O)(=O)N(C)c2ccc(OCC)c(OC)c2)c1	
		CN(CC(=O)Nc1ccc(F)c(F)c1F)C(=O)c1ccc2c(c1)OCCO2	EC50 [2]: > 1 µM
		O=S(=O)(c1ccccc1)N(CC(F)(F)F)c1ccc(C(O)(C(F)(F)F)C(F)(F)F)cc1	Activity (HepG2): Active; Activity [3]: Active; Emax [4]: 35%
15 µM	13 µM	CCOc1ccc(N(C)S(=O)(=O)c2cc(Cl)sc2C(=O)Nc2cc(Cl)cc(C3OCCO3)c2)cc1OC	
4.8 µM	13 µM	CCOC(=O)c1cccc(NC(=O)c2sc(Cl)cc2S(=O)(=O)N(C)c2ccc(OCC)cc2)c1	
	> 25 µM	CCOc1ccc(N(C)S(=O)(=O)c2ccsc2C(=O)Nc2cccc(C(=O)OC)c2)cc1	
3.5 µM	4.5 µM	CCOC(=O)c1cccc(NC(=O)c2sccc2S(=O)(=O)N(C)c2ccc(OCC)c(OCC)c2)c1	
	11 µM	CCCOc1ccc(N(C)S(=O)(=O)c2ccsc2C(=O)Nc2cccc(C(=O)OCC)c2)cc1	
	0.58 µM	CCOc1ccc(N(C)S(=O)(=O)c2cc(Cl)sc2C(=O)Nc2cc(Cl)cc(C(=O)OCCOC)c2)cc1OC	
	15 µM	CCOc1ccc(N(C)S(=O)(=O)c2cc(Cl)sc2C(=O)Nc2cccc(C(=O)OCCOC)c2)cc1OCC	
1 µM		CCOc1ccc(N(C)S(=O)(=O)c2cc(Cl)sc2C(=O)Nc2cc(Cl)cc(C(=O)OCCOCCOC)c2)cc1OC	
		O=C(O)Cc1cccc(OCCCN(Cc2cccc(C(F)(F)F)c2Cl)CC(c2ccccc2)c2ccccc2)c1	Activity [6]: Toxic
> 25 µM		CCOC(=O)c1cccc(-c2nnc(-c3sc(Cl)cc3S(=O)(=O)N(C)c3ccc(OCC)c(OC)c3)o2)c1	
> 25 µM		CCOc1ccc(N(C)S(=O)(=O)c2cc(Cl)sc2C(=O)Nc2cccc(C(=O)OCCOCCOC)c2)cc1OCC	
